Assay results taken from patent US12503484B2, “Androstane derivatives with activity as pure or predominantly pure stimulators of SERCA2a for the treatment of heart failure” (Seismic Pharmaceuticals, priority 2019, dated 2025).
Like-named read-outs stand apart in the source and are kept apart here. Marks after values point to notes of the source that are not given here.

How the values were obtained:
[1] = molecular target: dog renal Na^+/K^+ ATPase (Canis lupus familiaris (Dog) (Canis familiaris), UniProt P50997); assay: biochemical; conditions: IC50 inhibition of dog renal Na+/K+ ATPase, purified dog kidney enzyme;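 note: enzyme preincubated with inhibitor 10 min at 37 °C, then K^+ and ^32P-ATP added for 15 min, released ^32P counted, activity relative to untreated control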
Description: Inhibition of Dog Renal Na^+/K^+ ATPase Activity
The compounds were thus tested for their inhibitory effect on the canine renal Na^+/K^+ ATPase enzyme.
Kidneys were excised from 1-3 year-old male beagle dogs (WuXi AppTec, Suzhou Co., Ltd. 1318 Wuzhong Ave., Wuzhong District Suzhou, 215104 P.R. China) under pentobarbital anesthesia (Import Authorization from Italian Health Ministry 0009171-09/04/2015-DGSAF-COD_UO-P, 2015). Kidneys were sliced and the outer medulla was dissected and suspended (1 g/10 ml) in a sucrose-histidine solution containing 250 mM sucrose, 30 mM histidine, and 5 mM EDTA, pH 7.2. The tissue was homogenized by using an Ultra Turrax homogenizer. The sample was centrifuged at 6,000 g for 15 min. Next, the supernatant was decanted and centrifuged at 48,000 g for 30 min. The pellet was suspended in the sucrose-histidine buffer and incubated for 20 min with a sodium-dodecyl-sulphate (SDS) solution dissolved in a gradient buffer containing 25 mM imidazole and 1 mM EDTA, pH 7.5. The sample was layered on the top of a sucrose discontinuous gradient (10, 15, and 29.4%) and centrifuged at 60,000 g for 115 min. The pellet was suspended in the gradient buffer.
Increasing concentrations of the standard ouabain, or tested compound, were incubated with 0.3 μg of purified dog kidney enzyme for 10 min at 37° C. in 120 μl final volume of a medium containing 140 mM NaCl, 3 mM MgCl2, 50 mM Hepes-Tris, 3 mM ATP, pH 7.5. Then, 10 μl of a solution containing 10 mM KCl and 20 nCi of ^32P-ATP (3-10 Ci/mmol, Perkin Elmer) were added. The reaction was allowed to continue for 15 min at 37° C. and then stopped by acidification with 20% v/v ice-cold perchloric acid. ^32P was separated by centrifugation with activated Charcoal (Norit A, Serva) and the radioactivity was counted. The inhibitory activity was expressed as percent of the control samples carried out in the absence of ouabain, or tested compound.

SERCA2a = SERCA2a (Cavia porcellus, UniProt A0A286XD73); assay: SERCA2a ATPase activity in heart-derived SR microsomes from normal guinea-pig; format: biochemical
Experimental: SERCA2a ATPase Activity in Heart-Derived SR Microsomes from Normal Quinea-Pig
SERCA2a activity was measured in vitro as ^32P-ATP hydrolysis at different Ca^2+ concentrations (100-4000 nM) in the absence and presence of the tested compounds, as described (Micheletti R. et al., Am J Card 2007, 99:24A-32A). Increasing concentrations of each compound (ranging from 1 to 200 nM) were pre-incubated with 2 μg of SERCA2a enriched microsomes for 5 min at 4° C. in 80 μl of a solution containing 100 mM KCl, 5 mM MgCl2, 1 μM A23187, 20 mM Tris, pH 7.5. […] SERCA2a-dependent activity was identified as the portion of total hydrolytic activity inhibited by 10 μM cyclopiazonic acid (Seidler N W et al., J Biol Chem. 1989, 264:17816-23).
Dose-response curves were fitted by using a sigmoidal equation and the activity at the maximal velocity (Vmax) and the Kd for Ca^2+ were calculated (Synergy Software KaleidaGraph 3.6). The effect of the compounds in normal guinea-pig preparations was expressed as % decrease of Kd Ca^2+ (implying an increase of affinity for Ca^2+) of a control sample run in the absence of compound (Table 2). […] Data are mean±SD, n=number of experiments, *at least p<0.05.

[2] = compound 10 nM, read-out: Kd Ca2+ (nM) mean ± SD
[3] = compound 100 nM, read-out: Kd Ca2+ (nM) mean ± SD
[4] = compound 200 nM, read-out: Kd Ca2+ (nM) mean ± SD
[5] = read-out: Kd Ca2+ (nM) mean ± SD, compound 100 nM
[6] = read-out: Kd Ca2+ (nM) mean ± SD, compound 200 nM
[7] = read-out: Kd Ca2+ (nM) mean ± SD, compound 10 nM
[8] = read-out: Kd Ca2+ (nM) mean ± SD, compound 1 nM

Chain of SERCA2a (A0A286XD73 1-997): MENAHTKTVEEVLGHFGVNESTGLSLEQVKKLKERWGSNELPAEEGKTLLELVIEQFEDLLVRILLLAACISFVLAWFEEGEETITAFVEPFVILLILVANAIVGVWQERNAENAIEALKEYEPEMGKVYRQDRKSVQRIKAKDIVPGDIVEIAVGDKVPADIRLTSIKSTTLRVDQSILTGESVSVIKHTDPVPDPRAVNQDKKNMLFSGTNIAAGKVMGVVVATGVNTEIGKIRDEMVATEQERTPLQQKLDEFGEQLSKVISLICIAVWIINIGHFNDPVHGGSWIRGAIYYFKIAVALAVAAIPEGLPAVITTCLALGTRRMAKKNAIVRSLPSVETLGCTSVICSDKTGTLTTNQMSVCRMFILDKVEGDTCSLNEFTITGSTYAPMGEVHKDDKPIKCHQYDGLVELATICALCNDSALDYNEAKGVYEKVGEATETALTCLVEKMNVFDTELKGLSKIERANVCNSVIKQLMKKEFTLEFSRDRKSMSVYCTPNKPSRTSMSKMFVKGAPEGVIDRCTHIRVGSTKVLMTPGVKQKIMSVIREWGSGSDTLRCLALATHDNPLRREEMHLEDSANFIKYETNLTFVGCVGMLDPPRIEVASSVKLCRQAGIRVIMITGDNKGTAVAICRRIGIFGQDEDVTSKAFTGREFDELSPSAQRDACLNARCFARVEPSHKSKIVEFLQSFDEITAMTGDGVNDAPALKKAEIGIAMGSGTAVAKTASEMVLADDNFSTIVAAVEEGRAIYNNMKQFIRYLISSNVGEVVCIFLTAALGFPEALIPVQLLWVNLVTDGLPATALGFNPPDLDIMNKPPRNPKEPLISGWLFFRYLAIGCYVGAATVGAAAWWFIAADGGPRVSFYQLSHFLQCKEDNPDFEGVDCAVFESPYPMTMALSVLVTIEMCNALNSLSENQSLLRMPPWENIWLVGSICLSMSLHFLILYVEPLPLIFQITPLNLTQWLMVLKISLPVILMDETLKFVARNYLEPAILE

| Compound | IC50 [1] [nM] | % change in Ca2+ Kd vs control (negative = decrease) (SERCA2a; compound 100 nM) | Kd (SERCA2a; [3]) [nM] | % change in Ca2+ Kd vs control (negative = decrease) (SERCA2a; compound 200 nM) | further results |
| --- | --- | --- | --- | --- | --- |
| C[C@]12CCC(=CCCCN)CC1[C@@H](O)C[C@@H]1[C@@H]2CC[C@]2(C)C(=O)CC[C@@H]12 (mixture of isomers) [CVie209, (EZ)-3-(4-aminobutyliden]-6alpha-hydroxyandrostane-17-one] | 800 | – | – | – | – |
| C[C@]12CCC(=CCC3CCNC3)CC1[C@@H](CO)C(=O)C1C2CC[C@]2(C)C(=O)CCC12 (mixture of isomers) [CVie402, (E,Z)-3-[2-(pirrolidin-3yl)ethyliden]-6alpha-hydroxymethylandrostane-7,17-dione] | 4600 | – | – | – | – |
| C[C@]12CCC(=CCC3CCNCC3)CC1[C@@H](CO)C(=O)C1C2CC[C@]2(C)C(=O)CCC12 (mixture of isomers) [CVie405, (E,Z)-3-[2-(piperidin-4-yl)ethyliden]-6alpha-hydroxymethylandrostane-7,17-dione] | 7900 | – | – | – | – |
| CNCCCCC=C1CC[C@]2(C)C3CC[C@]4(C)C(=O)CCC4C3[C@H](O)[C@H](CO)C2C1 (mixture of isomers) [CVie406, (E,Z)-3-(5-N-methylaminopentyliden)-6alpha-hydroxymethyl-7alpha-hydroxyandrostane-17-one] | 1900 | – | – | – | – |
| C[C@]12CC/C(=C\CCC(=O)O)CC1[C@@H](O)C[C@@H]1[C@@H]2CC[C@]2(C)C(=O)CC[C@@H]12 (stereo partly drawn) [CVie201, (E)-4-(6alpha-hydroxy-17-oxoandrostane-3-yliden)butyric acid] | > 100000 | −15%* | 454 ± 53.2 | – | % change in Ca2+ Kd vs control (negative = decrease) (SERCA2a; compound 10 nM): −14%*; Kd (SERCA2a; [2]): 459 ± 57.1 nM |
| C[C@]12CC/C(=C/CCC(=O)O)CC1[C@@H](O)C[C@@H]1[C@@H]2CC[C@]2(C)C(=O)CC[C@@H]12 (stereo partly drawn) [CVie202, (Z)-4-(6alpha-hydroxy-17-oxoandrostane-3-yliden)butyric acid] | > 100000 | −7% | 436 ± 24.9 | −6% | % change in Ca2+ Kd vs control (negative = decrease) (SERCA2a; compound 10 nM): −4%; Kd (SERCA2a; [2]): 448 ± 9.4 nM; Kd (SERCA2a; [4]): 437 ± 26.4 nM |
| C[C@]12CC/C(=C\CCC(=O)O)CC1[C@H](O)C[C@@H]1[C@@H]2CC[C@]2(C)C(=O)CC[C@@H]12 (stereo partly drawn) [CVie203, (E)-4-(6beta-hydroxy-17-oxoandrostane-3-yliden)butyric acid] | > 100000 | −15%* | 386 ± 33.3 | −14%* | % change in Ca2+ Kd vs control (negative = decrease) (SERCA2a; compound 10 nM): −8%; Kd (SERCA2a; [2]): 418 ± 36.5 nM; Kd (SERCA2a; [4]): 393 ± 31.3 nM |
| C[C@]12CC/C(=C/CCC(=O)O)CC1[C@H](O)C[C@@H]1[C@@H]2CC[C@]2(C)C(=O)CC[C@@H]12 (stereo partly drawn) [CVie204, (Z)-4-(6beta-hydroxy-17-oxoandrostane-3-yliden)butyric acid] | > 100000 | +13% | 493 ± 107 | −3% | Kd (SERCA2a; [4]): 424 ± 82.7 nM |
| C[C@]12CC/C(=C\CC3CNC3)CC1[C@@H](O)C[C@@H]1[C@@H]2CC[C@]2(C)C(=O)CC[C@@H]12 (stereo partly drawn) [CVie205, (E)-3-[2-(azetidin-3-yl)ethyliden]-6alpha-hydroxyandrostane-17-one] | 7000 | −16.7%* | – | −13.1%* | Kd (SERCA2a; [5]): 656 ± 56.6 nM; Kd (SERCA2a; [6]): 683 ± 46.4 nM |
| C[C@]12CC/C(=C/CC3CNC3)CC1[C@@H](O)C[C@@H]1[C@@H]2CC[C@]2(C)C(=O)CC[C@@H]12 (stereo partly drawn) [CVie206, (Z)-3-[2-(azetidin-3-yl)ethyliden]-6alpha-hydroxyandrostane-17-one] | 5900 | −13.7%* | – | −15.1%* | Kd (SERCA2a; [5]): 678 ± 86.7 nM; Kd (SERCA2a; [6]): 667 ± 55.6 nM |
| C[C@]12CC=C(CCCCN)CC1[C@@H](O)CC1C2CC[C@]2(C)C(=O)CCC12 (stereo partly drawn) [CVie207, (E)-3-(4-aminobutyl)-6alpha-hydroxyandrost-2-ene-17-one hydroiodide] | 3900 | – | – | – | – |
| C[C@]12CC=C(CCC3CCNCC3)CC1[C@@H](O)C[C@@H]1[C@@H]2CC[C@]2(C)C(=O)CC[C@@H]12 (stereo partly drawn) [CVie208, 3-[2-(piperidin-4-yl)ethyl]-6alpha-hydroxyandrost-2-ene-17-one hydroiodide] | 10400 | −19.1%* | 362 ± 72.2 | −21.7% | Kd (SERCA2a; [4]): 350 ± 109 nM |
| C[C@]12CC/C(=C\CC3CCNCC3)CC1[C@@H](O)C[C@@H]1[C@@H]2CC[C@]2(C)C(=O)CC[C@@H]12 (stereo partly drawn) [CVie210, (E)-3-[2-(piperidin-4-yl)ethyliden]-6alpha-hydroxyandrostane-17-one] | 13100 | – | – | – | – |
| C[C@]12CC/C(=C/CC3CCNCC3)CC1[C@@H](O)C[C@@H]1[C@@H]2CC[C@]2(C)C(=O)CC[C@@H]12 (stereo partly drawn) [CVie211, (Z)-3-[2-(piperidin-4-yl)ethyliden]-6alpha-hydroxyandrostane-17-one] | 8300 | – | – | – | – |
| C[C@]12CC[C@H](CCC3CCNCC3)CC1[C@@H](O)C[C@@H]1[C@@H]2CC[C@]2(C)C(=O)CC[C@@H]12 (stereo partly drawn) [CVie212, 3beta-[2-(piperidin-4-yl)ethyl]-6alpha-hydroxyandrostane-17-one] | 3500 | −20.2%* | – | – | % change in Ca2+ Kd vs control (negative = decrease) (SERCA2a; compound 10 nM): −19.6%*; Kd (SERCA2a; [7]): 409 ± 121 nM; Kd (SERCA2a; [5]): 406 ± 82.9 nM |
| CCOC(=O)C[C@H]1CC[C@]2(C)C3CC[C@]4(C)C(=O)CCC4C3C[C@H](O)C2C1 (stereo partly drawn) [CVie213, Ethyl (6alpha-hydroxy-17-ketoandrostane-3beta-yl) acetate] | > 100000 | −23%* | 378 ± 114 | −17%* | % change in Ca2+ Kd vs control (negative = decrease) (SERCA2a; compound 10 nM): −12%; Kd (SERCA2a; [2]): 432 ± 129 nM; Kd (SERCA2a; [4]): 407 ± 124 nM |
| C[C@]12CC[C@H](CCCC(=O)O)CC1[C@H](O)C[C@@H]1[C@@H]2CC[C@]2(C)C(=O)CC[C@@H]12 (stereo partly drawn) [CVie215, 4-(6beta-hydroxy-17-oxoandrostane-3-yl) butyric acid] | > 100000 | – | 437 ± 74.1 | – | Kd (SERCA2a; compound 1 nM, read-out: Kd Ca2+ (nM) mean ± SD): 530 ± 47.9 nM; Kd (SERCA2a; [2]): 459 ± 80.3 nM |
| CCOC(=O)CCC[C@H]1CC[C@]2(C)C3CC[C@]4(C)C(=O)CCC4C3C[C@H](O)C2C1 (stereo partly drawn) [CVie217, 4-(6alpha-hydroxy-17-oxoandrostane-3-yl) ethylbutiroate] | > 100000 | −20%* | – | −29.4%* | % change in Ca2+ Kd vs control (negative = decrease) (SERCA2a; compound 1 nM): −20%; % change in Ca2+ Kd vs control (negative = decrease) (SERCA2a; compound 10 nM): −24.7%*; Kd (SERCA2a; [8]): 763 ± 103 nM; Kd (SERCA2a; [7]): 719 ± 142 nM; Kd (SERCA2a; [5]): 764 ± 120 nM; Kd (SERCA2a; [6]): 674 ± 150 nM |
| CCOC(=O)CCCCC[C@H]1CC[C@]2(C)C3CC[C@]4(C)C(=O)CCC4C3C[C@H](O)C2C1 (stereo partly drawn) [CVie218] | > 100000 | −19.1%* | – | −15%* | % change in Ca2+ Kd vs control (negative = decrease) (SERCA2a; compound 1 nM): −3%; % change in Ca2+ Kd vs control (negative = decrease) (SERCA2a; compound 10 nM): −7%*; Kd (SERCA2a; [8]): 705 ± 88.8 nM; Kd (SERCA2a; [7]): 677 ± 13.8 nM; Kd (SERCA2a; [5]): 587 ± 50.5 nM; Kd (SERCA2a; [6]): 619 ± 48 nM |
| CNCCCC/C=C1\CC[C@]2(C)C3CC[C@]4(C)C(=O)CCC4C3C(=O)[C@H](CO)C2C1 (stereo partly drawn) [CVie401, (E,Z)-3-(5-N-methylaminopentyliden]-6alpha-hydroxymethylandrostane-7,17-dione] | 24000 | – | – | – | – |
| C[C@]12CC/C(=C\CC3CNC3)CC1[C@@H](CO)C(=O)C1C2CC[C@]2(C)C(=O)CCC12 (stereo partly drawn) [CVie403] | 2900 | – | – | – | – |
| C[C@]12CC[C@H](CCC3CNC3)CC1[C@@H](CO)C(=O)C1C2CC[C@]2(C)C(=O)CCC12 (stereo partly drawn) [CVie407] | 3500 | −8.9% | – | 0% | Kd (SERCA2a; [5]): 390 ± 91.4 nM; Kd (SERCA2a; [6]): 428 ± 87.3 nM |
| C[C@]12CC[C@H](CCC3CNC3)CC1[C@@H](CO)[C@@H](O)C1C2CC[C@]2(C)C(=O)CCC12 (stereo partly drawn) [CVie408] | 3300 | −20.7%* | – | −21%* | Kd (SERCA2a; [5]): 356 ± 33.8 nM; Kd (SERCA2a; [6]): 355 ± 66.9 nM |
| C[C@]12CC[C@H](CCC3CCNC3)CC1[C@@H](CO)C(=O)C1C2CC[C@]2(C)C(=O)CCC12 (stereo partly drawn) [CVie409, 3beta-[2-(pirrolidin-3yl)ethyl]-6alpha-hydroxymethylandrostane-7,17-dione] | 3400 | – | – | – | – |
| C[C@]12CC[C@H](CCC3CCNC3)CC1[C@@H](CO)[C@@H](O)C1C2CC[C@]2(C)C(=O)CCC12 (stereo partly drawn) [CVie410, 3beta-[2-(pirrolidin-3yl)ethyl]6alpha-hydroxymethyl-7alpha-hydroxyandrostane-17-one] | 3700 | – | – | – | – |
| C[C@]12CC[C@H](CCC3CCNCC3)CC1[C@@H](CO)C(=O)[C@@H]1[C@@H]2CC[C@]2(C)C(=O)CC[C@@H]12 (stereo partly drawn) [CVie411, 3beta-[2-(piperidin-4-yl)ethyl]-6alpha-hydroxymethylandrostane-7,17-dione] | 1900 | 0% | 428 ± 76.6 | −4.9% | Kd (SERCA2a; [4]): 407 ± 111 nM |
